Laboratory results published in patent US20160083391A1, “TRICYCLIC PIPERAZINE DERIVATIVE” (Sunovion Pharmaceuticals Inc., priority 2014, published 2016).

System: PDE1
Assay: In vitro HTRF PDE1 inhibition assay
Type: biochemical
Conditions: HTRF cGMP assay, 100 nM cyclic GMP, PDE (1A3, 1B or 1C) with calmodulin, 45 minutes at 37° C.; isoform of the tabulated values not stated
In short: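 HTRF cGMP competition assay: PDE1A3, 1B or 1C with calmodulin acting on 100 nM cGMP in 1% DMSO, pH 7.4 buffer with Ca2+ and Mg2+, 45 min at 37 °C. Remaining cGMP detected with d2-cGMP and anti-cGMP cryptate (665/615 nm); IC50 reported as banded categories.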

Row | Compound | IC50
1 | CC(C)n1ncc2c(=O)n3c(nc21)CN(c1ccc(Cl)cc1)CC3 [Compound I-91, 8-(4-Chlorophenyl)-1-isopropyl-6,7,8,9-tetrahydropyrazino[1,2-a]pyrazolo[3,4-d]pyrimidin-4(1H)-one] | < 1000 nM
2 | COc1cccc(N2Cc3nc4c(cnn4C(C)C)c(=O)n3CC2C)c1 (racemic) [Compound I-151, (±)-1-Isopropyl-8-(3-methoxyphenyl)-7-methyl-6,7,8,9-tetrahydropyrazino[1,2-a]pyrazolo[3,4-d]pyrimidin-4(1H)-one] | < 1000 nM
3 | COc1ccc(CN2CCn3c(nc4c(cnn4C4CCCC4)c3=O)C2C)cc1 (racemic) [Compound I-118, (±)-1-Cyclopentyl-8-(4-methoxybenzyl)-9-methyl-6,7,8,9-tetrahydropyrazino[1,2-a]pyrazolo[3,4-d]pyrimidin-4(1H)-one] | 1000 to 10000 nM
4 | COc1ccc(CN2CCn3c(nn4c(C5CCCC5)nnc4c3=O)C2)cc1 [Compound I-131, 3-Cyclopentyl-7-(4-methoxybenzyl)-8,9-dihydro-6H-pyrazino[2,1-c][1,2,4]triazolo[3,4-f][1,2,4]triazin-11(7H)-one] | < 1000 nM
5 | CC(C)CN1CCn2c(nc3c(cnn3C(C)C)c2=O)C1 [Compound I-57, 8-Isobutyl-1-isopropyl-6,7,8,9-tetrahydropyrazino[1,2-a]pyrazolo[3,4-d]pyrimidin-4(1H)-one] | > 10000 nM
6 | CC(C)n1ncc2c(=O)n3c(nc21)CN(C)CC3 [Compound I-18, 1-Isopropyl-8-methyl-6,7,8,9-tetrahydropyrazino[1,2-a]pyrazolo[3,4-d]pyrimidin-4(1H)-one] | > 10000 nM
7 | CN1CCn2c(nc3[nH]nc(Nc4ccccc4)c3c2=O)C1 [Compound I-49, 8-Methyl-3-(phenylamino)-6,7,8,9-tetrahydropyrazino[1,2-a]pyrazolo[3,4-d]pyrimidin-4(1H)-one] | > 10000 nM
8 | O=c1c2ncn(C3CCCC3)c2nc2n1CCN(Cc1ccc(Cl)cc1)C2 [Compound I-126, 6-(4-Chlorobenzyl)-3-cyclopentyl-5,6,7,8-tetrahydropyrazino[1,2-a]purin-10(3H)-one] | > 10000 nM
9 | COc1ccc(CN2CCn3c(nc4c(cnn4C4CCCC4)c3=O)C2)cc1 [Compound I-84, 1-Cyclopentyl-8-(4-methoxybenzyl)-6,7,8,9-tetrahydropyrazino[1,2-a]pyrazolo[3,4-d]pyrimidin-4(1H)-one] | < 1000 nM
10 | CC(C)c1n[nH]c2c(=O)n3c(nc12)CNCC3 [Compound I-10, 3-Isopropyl-5,6,7,8-tetrahydropyrazino[1,2-a]pyrazolo[4,3-a]pyrimidin-10(1H)-one] | > 10000 nM
11 | CC(C)n1ncc2c(=O)n3c(nc21)CNCC3 [Compound I-1, 1-Isopropyl-6,7,8,9-tetrahydropyrazino[1,2-a]pyrazolo[3,4-d]pyrimidin-4(1H)-one] | > 10000 nM
12 | CN1Cc2nc3c(cnn3C3CCCC3)c(=O)n2C(c2ccccc2)C1 (racemic) [Compound I-102, (±)-1-cyclopentyl-8-methyl-6-phenyl-6,7,8,9-tetrahydropyrazino[1,2-a]pyrazolo[3,4-d]pyrimidin-4(1H)-one] | > 10000 nM
13 | CN1CCn2c(nc3c(cnn3-c3ccccc3)c2=O)C1 [Compound I-19, 8-Methyl-1-phenyl-6,7,8,9-tetrahydropyrazino[1,2-a]pyrazolo[3,4-d]pyrimidin-4(1H)-one] | > 10000 nM
14 | CN1CCn2c(nc3c(cnn3C)c2=O)C1 [Compound I-17, 1,8-Dimethyl-6,7,8,9-tetrahydropyrazino[1,2-a]pyrazolo[3,4-d]pyrimidin-4(1H)-one] | > 10000 nM
15 | O=c1c2cnn(-c3ccccc3)c2nc2n1CCNC2Cc1ccccc1 (racemic) [Compound I-9, (±)-9-Benzyl-1-phenyl-6,7,8,9-tetrahydropyrazino[1,2-a]pyrazolo[3,4-d]pyrimidin-4(1H)-one] | > 10000 nM
16 | CC(C)n1ncc2c(=O)n3c(nc21)CN(Cc1ccc(Cl)cc1)CC3 [Compound I-73, 8-(4-Chlorobenzyl)-1-isopropyl-6,7,8,9-tetrahydropyrazino[1,2-a]pyrazolo[3,4-d]pyrimidin-4(1H)-one] | < 1000 nM
17 | CC(C)c1n[nH]c2c(=O)n3c(nc12)C(Cc1ccccc1)N(Cc1ccccc1)CC3 (racemic) [Compound I-45, (±)-5,6-dibenzyl-3-isopropyl-5,6,7,8-tetrahydropyrazino[1,2-a]pyrazolo[4,3-d]pyrimidin-10(1H)-one] | > 10000 nM

Further lines, results first:

Row | IC50 | Compound
18 | < 1000 nM | O=c1c2cnc(C3CCOCC3)n2nc2n1CCN(c1ccc(Cl)cc1)C2 [Compound I-236, 7-(4-Chlorophenyl)-3-(tetrahydro-2H-pyran-4-yl)-8,9-dihydro-6H-imidazo[5,1-f]pyrazino[2,1-c][1,2,4]triazin-11(7H)-one]
19 | 1000 to 10000 nM | CCC1Cn2c(nc3c(cnn3C(C)C)c2=O)CN1Cc1ccc(Cl)cc1 (racemic) [Compound I-154, (±)-8-(4-Chlorobenzyl)-7-ethyl-1-isopropyl-6,7,8,9-tetrahydropyrazino[1,2-a]pyrazolo[3,4-d]pyrimidin-4(1H)-one]
20 | 1000 to 10000 nM | O=c1c2cnn(C3CCOC3)c2nc2n1CCN(Cc1ccc(Cl)cc1)C2 (racemic) [Compound I-220, (±)-8-(4-Chlorobenzyl)-1-(tetrahydrofuran-3-yl)-6,7,8,9-tetrahydropyrazino[1,2-a]pyrazolo[3,4-d]pyrimidin-4(1H)-one]
21 | 1000 to 10000 nM | O=c1c2cnn(C3CCCC3)c2nc2n1CCN(Cc1cncnc1)C2 [Compound I-191, 1-Cyclopentyl-8-(pyrimidin-5-ylmethyl)-6,7,8,9-tetrahydropyrazino[1,2-a]pyrazolo[3,4-d]pyrimidin-4(1H)-one]
22 | > 10000 nM | CC(C)c1ncc2c(=O)n3c(nn12)CN(Cc1cncnc1)CC3 [Compound I-192, 3-Isopropyl-7-(pyrimidin-5-ylmethyl)-8,9-dihydro-6H-imidazo[5,1-f]pyrazino[2,1-c][1,2,4]triazin-11(7H)-one]
23 | < 1000 nM | COc1cc(N2Cc3nc4c(cnn4C(C)C)c(=O)n3CC2C)ccc1F (racemic) [Compound I-152, (±)-8-(4-Fluoro-3-methoxyphenyl)-1-isopropyl-7-methyl-6,7,8,9-tetrahydropyrazino[1,2-a]pyrazolo[3,4-d]pyrimidin-4(1H)-one]
24 | < 1000 nM | O=c1c2cnn(C3CCOCC3)c2nc2n1CCN(c1ccc(Cl)cc1)C2 [Compound I-212, 8-(4-Chlorophenyl)-1-(tetrahydro-2H-pyran-4-yl)-6,7,8,9-tetrahydropyrazino[1,2-a]pyrazolo[3,4-d]pyrimidin-4(1H)-one]
25 | 1000 to 10000 nM | CCCn1ncc2c(=O)n3c(nc21)CN(Cc1cccc(OC)c1)CC3 [Compound I-254, 8-(3-Methoxybenzyl)-1-propyl-6,7,8,9-tetrahydropyrazino[1,2-a]pyrazolo[3,4-d]pyrimidin-4(1H)-one]
26 | < 1000 nM | O=c1c2cnc(C3CCCC3)n2nc2n1CCN(c1ccc(Cl)cc1)C2 [Compound I-182, 7-(4-Chlorophenyl)-3-cyclopentyl-8,9-dihydro-6H-imidazo[5,1-f]pyrazino[2,1-c][1,2,4]triazin-11(7H)-one]
27 | < 1000 nM | O=c1c2cnn(C3CC3)c2nc2n1CCN(c1ccc(Cl)cc1)C2 [Compound I-248, 8-(4-Chlorophenyl)-1-cyclopropyl-6,7,8,9-tetrahydropyrazino[1,2-a]pyrazolo[3,4-d]pyrimidin-4(1H)-one]
28 | < 1000 nM | O=c1c2cnc(C3CCCC3)n2nc2n1CCN(Cc1cnccn1)C2 [Compound I-205, 3-Cyclopentyl-7-(pyrazin-2-ylmethyl)-8,9-dihydro-6H-imidazo[5,1-f]pyrazino[2,1-c][1,2,4]triazin-11(7H)-one]
29 | < 1000 nM | CC(C)n1ncc2c(=O)n3c(nc21)CN(c1ccc(Cl)cn1)CC3 [Compound I-241, 8-(5-Chloropyridin-2-yl)-1-isopropyl-6,7,8,9-tetrahydropyrazino[1,2-a]pyrazolo[3,4-d]pyrimidin-4(1H)-one]
30 | < 1000 nM | CCOc1cccc(N2CCn3c(nn4c(C5CCCC5)ncc4c3=O)C2)c1 [Compound I-180, 3-Cyclopentyl-7-(3-ethoxyphenyl)-8,9-dihydro-6H-imidazo[5,1-f]pyrazino[2,1-c][1,2,4]triazin-11(7H)-one]
31 | < 1000 nM | O=c1c2cnc(C3CCCC3)n2nc2n1CCN(c1ccc(F)cc1)C2 [Compound I-183, 3-Cyclopentyl-7-(4-fluorophenyl)-8,9-dihydro-6H-imidazo[5,1-f]pyrazino[2,1-c][1,2,4]triazin-11(7H)-one]
32 | > 10000 nM | COCCn1ncc2c(=O)n3c(nc21)CN(Cc1ccc(Cl)c(Cl)c1)CC3 [Compound I-160, 8-(3,4-Dichlorobenzyl)-1-(2-methoxyethyl)-6,7,8,9-tetrahydropyrazino[1,2-a]pyrazolo[3,4-d]pyrimidin-4(1H)-one]
33 | 1000 to 10000 nM | Cc1ncc(CN2CCn3c(nc4c(cnn4C4CCCC4)c3=O)C2)cn1 [Compound I-195, 1-Cyclopentyl-8-((2-methylpyrimidin-5-yl)methyl)-6,7,8,9-tetrahydropyrazino[1,2-a]pyrazolo[3,4-d]pyrimidin-4(1H)-one]
34 | < 1000 nM | COc1ccc(CN2CCn3c(nn4c(C(C)C)ncc4c3=O)C2)cc1 [Compound I-178, 3-Isopropyl-7-(4-methoxybenzyl)-8,9-dihydro-6H-imidazo[5,1-f]pyrazino[2,1-c][1,2,4]triazin-11(7H)-one]
35 | 1000 to 10000 nM | Cc1ccc(CN2CCn3c(nc4c(cnn4C(C)C)c3=O)C2)cn1 [Compound I-186, 1-Isopropyl-8-((6-methylpyridin-3-yl)methyl)-6,7,8,9-tetrahydropyrazino[1,2-a]pyrazolo[3,4-d]pyrimidin-4(1H)-one]
36 | 1000 to 10000 nM | COc1ccc(CN2CCn3c(nn4c(C5CCOC5)ncc4c3=O)C2)cc1 (racemic) [Compound I-232, (±)-7-(4-Methoxybenzyl)-3-(tetrahydrofuran-3-yl)-8,9-dihydro-6H-imidazo[5,1-f]pyrazino[2,1-c][1,2,4]triazin-11(7H)-one]
